Values joined by “and” are separate entries in the source; they are usually repeats but may differ in a detail not shown here. Equal entries are not always repeated. “Also recorded” adds a separate entry of the source.
Tests used:
[1] = DPRA-like chemoassay with Gly-pNA (24 h percent depletion); conditions: PPB pH 7.4, 24 h, 25 °C, 50-fold excess of test compound
Description: (§1) In addition to the kinetic Gly-pNA chemoassay, the reactivity of the 27 compounds toward Gly-pNA and Lys-pNA was determined in terms of percentage depletions after reacting for 24 h at 25 °C employing the following DPRA-like setup: stock solutions for the test compounds were prepared by gravimetrically adding at least 3 mg of the respective compound into a glass vial (total volume 1.8 mL) and subsequent addition of 1 mL ACN. […] The stock solutions for Gly-pNA and Lys-pNA with a final concentration of 1.7 mM were prepared by dissolving the required amount in one of the three aqueous buffer solutions used for this DPRA-like chemoassay: phosphate buffer (80 mM, pH 7.4), phosphate buffer (80 mM, pH 10.2), and ammonium acetate buffer (100 mM, pH 10.2). Glass vials (1.8 mL) were used as reaction vessels.
(§2) In the final reaction mixtures, the concentration of Gly-pNA or Lys-pNA was 0.03 mM, and the test compound was 50 times in excess (1.5 mM). After incubation for 24 h at 25 °C, the free amount of either Gly-pNA or Lys-pNA was determined using the HPLC UV–vis method described for the kinetic Gly-pNA chemoassay. , The percentage depletion of Gly-pNA (D Gly) or Lys-pNA (D Lys) was determined directly from peak areas according to eq 3 Dx[%]=(Axcontrol−Ax/Axcontrol×100)withx=GlyorLys
(§3) In eq , A x and A x ^control are the peak areas of the chromatographic signal of either Gly-pNA (x = Gly) or Lys-pNA (x = Lys) at 315 nm after 24 h incubation with and without test compound, respectively.
(§4) Summary of experimental conditions of the DPRA-like setups used to determine
(§5) DGly, D Lys, and D DPRA data in Table 2 (main text).
(§6) Table S2. Overview of experimental conditions for the DPRA-like setups used to
(§7) determine 24 h percentage depletion rates for the reaction of the test compounds with
(§8) Gly-pNA, Lys-pNA, and the DPRA lysine peptide (literature data).

[2] = DPRA-like chemoassay with Lys-pNA (24 h percent depletion); conditions: 25 °C, 50-fold excess of test compound
Description: as §1, §2, §3, §4, §5, §6, §7, §8

physchem = experiment: physchem
Description: To this end, the test compound was dissolved in 1 mL ACN in a glass vial. […] As reaction batches, 1.8 mL glass vials equipped with 400 μL glass inserts were used and filled with 220 μL of the respective aqueous buffer and 80 μL of the test compound stock solution. The depletion of the test compounds was recorded with the HPLC UV–vis instrument used for the kinetic Gly-pNA chemoassay. , Chromatographic separation of the reaction mixture was achieved using the gradient described for the Gly-pNA chemoassay previously , and an isocratic HPLC method (water/ACN 70:30, both with 0.1 vol % formic acid). The wavelengths used for the detection of the compound and the information on the used chromatographic method are given in the Supporting Information in Table S3.

DPRA lysine peptide = tested on: DPRA lysine peptide; parameters: method as in literature; conditions: AAB pH 10.2, 24 h; ref literature; cited from earlier work
[3] = Kinetic Gly-pNA chemoassay (second-order rate constant k Gly);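 note: Gly-pNA depletion followed over time by chromatographic peak area, with test compound in at least tenfold excess (pseudo-first-order), added from acetonitrile stock, at least three runs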
Description: The reactivity of the 27 test compounds toward Gly-pNA was quantified in terms of the second-order reaction rate constant k Gly using our Gly-pNA chemoassay. , In brief, stock solutions of the test compound were freshly obtained every day by gravimetrically adding the required amount into a 10 mL volumetric flask, which was subsequently filled to volume with acetonitrile (ACN). The required amounts of test compounds depended on their reactivity toward Gly-pNA. […] As usual for kinetic studies, fast reacting chemicals are applied at lower concentrations than little reactive candidates. All stock solutions were stored at 25 °C in a climate chamber before first use (ca. 30 min) and for repeating an experiment (max. 6 h). Gly-pNA stock solution (1.69 mM) was obtained by dissolving 3.3 mg Gly-pNA in 10 mL phosphate buffer solution (80 mM) and could be used for several weeks if stored at 4 °C. For all chemoassay experiments, 1.8 mL glass vials were used as reaction batches, which were initially filled with 1070 μL phosphate buffer (80 mM) and 30 μL Gly-pNA stock solution. To start the reaction, 400 μL of the test compound stock solutions was added. […] The time between the start of the reaction and the first analysis was measured with an electronic time clock. All reactions were performed under pseudo-1st order conditions with the electrophile being at least ten times in excess over Gly-pNA.
For these compounds, the minimum reactivity was estimated in terms of k Gly by plotting ln (A Gly ^ t /A Gly ^0) vs reaction time t (with A Gly ^ t and A Gly ^0 being the peak areas under the chromatographic signal for Gly-pNA at time t and at the beginning of the reaction (t = 0)). Linear regression through 0 (at t = 0) and the first measurement point yields slope s (see Figure S1) which is the pseudo-1st order rate constant k Gly ^pseudo that can be converted with the initial test compound concentration in the reactions mixture (c) into k Gly according to eq . 1 kGly=kGlypseudo/c
2 Ln(AGlyt/AGly0)≈−kGly·c·t+0.5·kGly·kloss·c·t^2 Here k loss is the first order rate constant covering all processes contributing to the loss of the test compounds, except the reaction with Gly-pNA. The regression parameter of the linear part of eq (= k Gly·c) is the pseudo-1st order rate constant k Gly ^pseudo and can be converted into k Gly according to eq (see above).
Linear regression of these plots provides slope s, which is again the pseudo-1st order rate constant, k Gly ^pseudo, and can be used to calculate k Gly according to eq . All experiments to determine k Gly have been conducted at least three times.

[4] = ref Krutz et al., Sadekar et al., Ponder et al., Karol et al., Hopkins et al.; cited from earlier work
[5] = AAB (ammonium acetate buffer) pH 10.2, 24 h
[6] = reaction with Gly-pNA, phosphate buffer 80 mM, 25 °C, nominal test compound concentration, ≥ values are minimum reactivity
[7] = buffer, pH 7.4, half-lives t 1/2 ± s(t 1/2), PPB (phosphate buffer 80 mM) pH 7.4
[8] = buffer, pH 10.2, half-lives t 1/2 ± s(t 1/2), AAP (ammonium acetate buffer 100 mM) pH 10.2
[9] = buffer, pH 10.2, half-lives t 1/2 ± s(t 1/2), PPB (phosphate buffer 80 mM) pH 10.2
[10] = reaction with Gly-pNA, phosphate buffer, nominal test compound concentration
[11] = aqueous ammonium acetate buffer with acetonitrile, pH 10.2
[12] = PPB (phosphate buffer 80 mM) pH 7.4
[13] = PPB (phosphate buffer 80 mM) pH 10.2
[14] = determined using the free (not bound by water) fraction of F1

Compound | D Gly ± s(D Gly), 24 h percent depletion of Gly-pNA [1] | D Lys ± s(D Lys), 24 h percent depletion of Lys-pNA [2, 5] | D Lys ± s(D Lys), 24 h percent depletion of Lys-pNA ([2]; PPB pH 10.2, 24 h) | D DPRA ± s(D DPRA), depletion of the DPRA lysine peptide (DPRA lysine peptide) [%] | k Gly ± s(k Gly), second-order rate constant [3, 6] [L mol^–1 min^–1] | half-life (physchem; [7]) [min] | half-life (physchem; [8]) [min] | half-life (physchem; [9]) [min] | Classification as potential respiratory sensitizer or non-sensitizer [4] | log k Gly [3, 10] | further results
Cc1ccc(N=C=O)cc1N=C=O [A1, 2,4-Toluene diisocyanate] | 100% | 18.8 ± 0.6% | 100% | 22.0 ± 1.4 | ≥33484 ± 803 | – | – | – | – | – | half-life (physchem; buffer, pH 7.4, half-lives t 1/2 ± s(t 1/2)): < 1 min; half-life (physchem; buffer, pH 10.2, half-lives t 1/2 ± s(t 1/2)): < 1 min
O=C=Nc1cccc2c(N=C=O)cccc12 [A2, 1,5-naphthalene diisocyanate] | 100% | 19.9 ± 3.7% | 100% | – | ≥24928 ± 12821 | 3.6 ± 1.6 | < 1 | 2.6 ± 1.1 | potential respiratory sensitizer | ≥4.40 | –
Cc1c(N=C=O)cccc1N=C=O [A3, 2,6-toluene diisocyanate] | 100% | 20.7 ± 1.4% | 100% | 26.5 ± 0.7 | ≥20880 ± 695 | < 1 | < 1 | < 1 | potential respiratory sensitizer | ≥4.32 | –
O=C=NCCCCCCN=C=O [B1, hexamethylene diisocyanate] | 100% | 23.3 ± 0.3% | 98.7 ± 2.2% | 41.6 ± 7.3 | 451 ± 33 | – | – | – | potential respiratory sensitizer | 2.65 | –
CC1(C)CC(N=C=O)CC(C)(CN=C=O)C1 (centres unmarked) [B2, isophorone diisocyanate] | 100% | 21.5 ± 0.3% | 100% | 28.0 | 256 ± 6 | – | – | – | potential respiratory sensitizer | 2.41 | –
O=C1C=CC(=O)O1 [C4, maleic anhydride] | 100% | 12.0 ± 1.1% | 100% | 54.0 ± 25.5 | ≥5930 ± 160 | 35.3 ± 1.3 | < 1 | 2.7 | – | 3.77 | –
O=C1OC(=O)C2C3C=CC(C3)C12 (centres unmarked) [C5, himic anhydride] | 100% | 29.6 ± 0.3% | 98.9 ± 0.1% | – | 4126 ± 114 | – | – | – | potential respiratory sensitizer | 3.62 | half-life (physchem; [11]): < 1 min; half-life (physchem; aqueous phosphate buffer with acetonitrile, pH 7.4): 6.79 ± 0.13 min; half-life (physchem; aqueous phosphate buffer with acetonitrile, pH 10.2): 1.3 ± 0.41 min; k Gly ± s(k Gly), second-order rate constant ([3]; reaction with Gly-pNA, phosphate buffer 80 mM, 25 °C, nominal test compound concentration, ≥ values are minimum reactivity, listed as himic anhydride): 4126 L mol^–1 min^–1
CC12CC=CCC1C(=O)OC2=O (centres unmarked) [D2, methyltetrahydrophthalic anhydride] | 100% | 18.0 ± 0.9% | 100% | – | 2051 ± 32 | 2.24 ± 0.03 | < 1 | < 1 | potential respiratory sensitizer | 3.31 | –
O=[N+]([O-])c1ccc(S(=O)(=O)Cl)c([N+](=O)[O-])c1 [E1, 2,4-dinitrobenzenesulfonyl chloride] | 56.1% and 56.1 ± 0.5% | 13.4% and 13.4 ± 0.8% | 62.6% and 62.6 ± 4.2% | – | – | < 1 | < 1 | < 1 | – | – | –
Clc1nc(Cl)nc(Cl)n1 [E2, 2,4,6-trichloro-1,3,5-triazine] | 100% | 91.1 ± 1.1% | 100% | 99.7 ± 0.6 | ≥1424 ± 364 | 1.14 ± 0.05 | < 1 | < 1 | – | – | –
O=[N+]([O-])c1ccc(F)c([N+](=O)[O-])c1 [E3, 1-fluoro-2,4-dinitrobenzene] | 72.7% and 72.7 ± 0.7% | 84.0 ± 3.3% | 100% | – | 3.95 ± 0.07 | – | 73.2 ± 9.7 | 615 ± 31 | non-sensitizer | 0.6 | half-lives t 1/2 ± s(t 1/2) (physchem; [12]): no depletion
O=[N+]([O-])c1ccc(Cl)c([N+](=O)[O-])c1 [E4, 1-chloro-2,4-dinitrobenzene] | – | 5.0 ± 0.7% | 8.1 ± 0.5% | 21.1 ± 16.3 | – | – | – | – | non-sensitizer | –2.20 | half-lives t 1/2 ± s(t 1/2) (physchem; AAP (ammonium acetate buffer 100 mM) pH 10.2): did not show any significant signal depletion; also recorded: no depletion; half-lives t 1/2 ± s(t 1/2) (physchem; [12]): no depletion; half-lives t 1/2 ± s(t 1/2) (physchem; [13]): no depletion
C=C(C#N)C(=O)OCC [F1, ethyl 2-cyanoacrylate] | 98.3 ± 0.1% | 1.6 ± 0.2% | 40.2% and 40.2 ± 1.9% | – | 2.22 ± 0.33 | – | – | – | – | 0.35 | k Gly ± s(k Gly), second-order rate constant [3, 14]: 10886 L mol^–1 min^–1 and 10886 ± 1589 ^c L mol^–1 min^–1; log k Gly [3, 14]: 4.02 and 4.04; free (reactive) fraction, not bound to water ([3]; in the Gly-pNA chemoassay setup): < 0.1%
C=C(C)C(=O)OC [F5, methyl methacrylate] | – | 0.7 ± 0.3% | 2.6 ± 1.3% | 10.6 ± 0.8 | – | – | 3060 ± 625 | 1880 ± 488 | – | – | half-lives t 1/2 ± s(t 1/2) (physchem; [12]): no depletion
Cc1ccc(S(=O)(=O)NCl)cc1 [G2, chloramine T] | 100% | 23.9 ± 1.6% | 53.8 ± 2.9% | 80.8 ± 30.7 | 41.9 ± 0.2 | – | – | – | – | 1.62 | half-lives t 1/2 ± s(t 1/2) (physchem; [12]): no depletion; half-lives t 1/2 ± s(t 1/2) (physchem; [13]): no depletion; half-life (physchem; [11]): 58.5 ± 1.3 min

Source: article PMC12175168, “Refining the Amino Reactivity-Based Identification of Respiratory Sensitizers” (Chemical Research in Toxicology, 2025)
